Results on three compounds are retold here after patent US5607967A, “Treatment of alzheimer's disease with 5-(tetradecyloxy)-2-furan carboxylic acid” (Merck & Co., Inc., priority 1994, dated 1997).

Each structure is given as a SMILES string.

The target of data set [1] is T1, GR/PPAR chimeric receptor (Mus musculus, UniProt P23204).
T1 construct: COS cells, MMTV-luciferase
T1 sequence (P23204 1-468): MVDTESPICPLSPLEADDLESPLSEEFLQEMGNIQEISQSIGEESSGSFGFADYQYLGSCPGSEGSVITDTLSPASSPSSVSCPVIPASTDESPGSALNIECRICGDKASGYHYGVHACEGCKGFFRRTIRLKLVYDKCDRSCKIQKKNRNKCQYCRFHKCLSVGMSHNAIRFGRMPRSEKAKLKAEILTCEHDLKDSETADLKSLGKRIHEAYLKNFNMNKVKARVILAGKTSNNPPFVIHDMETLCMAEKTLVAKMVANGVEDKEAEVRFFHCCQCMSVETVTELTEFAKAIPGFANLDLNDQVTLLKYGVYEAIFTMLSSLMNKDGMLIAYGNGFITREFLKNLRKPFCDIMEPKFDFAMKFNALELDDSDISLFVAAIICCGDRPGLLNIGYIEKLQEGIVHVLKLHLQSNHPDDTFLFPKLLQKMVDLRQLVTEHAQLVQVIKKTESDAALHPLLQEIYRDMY
T1 sequence (P06537 1-792 partner): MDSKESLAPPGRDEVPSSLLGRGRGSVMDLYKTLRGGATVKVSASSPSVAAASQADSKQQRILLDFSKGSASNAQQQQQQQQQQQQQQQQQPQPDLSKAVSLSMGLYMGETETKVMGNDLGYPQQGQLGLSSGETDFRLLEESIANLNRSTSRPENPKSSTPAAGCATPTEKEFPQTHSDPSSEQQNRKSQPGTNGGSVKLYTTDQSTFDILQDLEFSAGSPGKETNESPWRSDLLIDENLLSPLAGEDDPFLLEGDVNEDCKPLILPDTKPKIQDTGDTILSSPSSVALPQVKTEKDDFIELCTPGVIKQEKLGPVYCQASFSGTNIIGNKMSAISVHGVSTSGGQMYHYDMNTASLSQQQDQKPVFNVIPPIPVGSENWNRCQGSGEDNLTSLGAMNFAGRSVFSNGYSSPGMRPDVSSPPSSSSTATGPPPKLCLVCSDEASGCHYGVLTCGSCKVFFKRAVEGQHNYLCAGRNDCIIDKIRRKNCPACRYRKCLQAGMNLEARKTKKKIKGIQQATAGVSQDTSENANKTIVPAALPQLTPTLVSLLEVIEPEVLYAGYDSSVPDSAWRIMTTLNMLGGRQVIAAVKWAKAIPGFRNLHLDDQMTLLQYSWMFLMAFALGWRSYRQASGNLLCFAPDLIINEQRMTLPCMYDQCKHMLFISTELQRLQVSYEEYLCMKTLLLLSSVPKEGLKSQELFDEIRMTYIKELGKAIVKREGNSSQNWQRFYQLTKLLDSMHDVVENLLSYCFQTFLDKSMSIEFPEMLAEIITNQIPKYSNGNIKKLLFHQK
Nature of the data set: Ligand dependent transcription assay, GR/PPAR chimeric receptor with MMTV-luciferase reporter. In kind it is cell-based. The protocol:
Similar hybrid receptors GR/NER, GR/NUC and GR/PPAR, in identical expression plasmid backgrounds were prepared essentially as described for the construction of the GR/mPPAR and GR/NUC chimeric receptors in Schmidt et al., "Identification of a new member of the steroid hormone receptor superfamily that is activated by a peroxisome proliferator and fatty acids," Mol. Endocrinol., 6(10):1634-41, 1992, and in Boie et al., "Enantioselective activation of the peroxisome proliferator-activated receptor", J. Biol. Chem. 268(8):5530-4, 1993.
Briefly, the amino terminal portion of the mouse glucocorticoid receptor (mGR), that includes the DNA binding domain was fused to the putative ligand binding domains of the nuclear receptor NER, hNUC-I (Schmidt et al., 1992), mPPAR (Issenmann and Green, 1990) to form the respective chimeric receptors GR/NER, GR/NUC and GR/PPAR. The GR/NER chimeric receptor was constructed as described for the GR/NUC and GR/PPAR hybrid receptors (Schmidt et al., 1992; Boie et al). The cDNA sequences coding for amino acids Arg^155 and Glu^156 of the NER receptor were converted to the Xho I restriction site, that was later used for the ligation to the GR cDNA sequences that coded for the DNA binding domain. Thus, converting amino acid residues Arg^155 and Glu^156 of NER receptor to amino acid residues Ser^155 and His^156.
The ligand transcription assay mediated by GR/PPAR in COS cells was performed as described in Example 4. The cells were treated with TOFA and Cerulenin at 0.1, 1, 10 and 100 μM.

The nature of data set [2]: Toxicity to transfected COS cells in the transcription assay. Format: cell-based. Particulars: monkey, GR/PPAR transcription assay, read-out: Concentrations toxic to the cells. The protocol:
The ligand transcription assay mediated by GR/PPAR in COS cells was performed as described in Example 4. The cells were treated with TOFA and Cerulenin at 0.1, 1, 10 and 100 μM. Concentrations of cerulenin above 10 μM were toxic to the cells.

For data set [3] the following is noted: chronic treatment, medial cholinergic pathway lesions; cited from earlier work.
Data set [4] has as its system Dopamine D1 receptor antagonist (SCH 23390) induced catalepsy. Nature of the data set: SCH 23390 induced catalepsy (Bar method). In kind it is in vivo, rat. The settings on record: carrier pretreatment, 24 h later 0.5 mg/kg SCH23390. The protocol: Rats were pretreated with 0.4 mg/kg TOFA or with carrier (S.C.). Twenty-four hours later, the rats were challenged with 0.5 mg/kg SCH23390, a Dopamine D1 antagonist, and the duration of catalepsy was monitored.
(§1) Catalepsy was determined by a modification of the Bar method (Undie and Friedman, 1988). A steel bar, 1.1 cm in diameter and 50 cm long, was suspended at a height of 10 cm above the working surface. Three sides of the bench around the bar were walled off with brown cardboard, and the linings on the bench surface were selected to be of the same color with the cardboard walls. The animal's hind limbs were freely placed on the bench, the fail laid out to the back, and the forelimbs placed over the bar. The length of time a rat stayed up on the bar was noted up to a preset cut-off point of 120 s. The time was counted off upon observing any of the following actions: (1) the animal came off, placing its two forepaws on the bench, (2) the animal climbed onto or over the bar with both hind limbs, (3) the animal initiated locomotion along or around the bar. Subsequently, time readings were translated into scores by awarding a score of 1 for each successfully completed 5 s on the bar. For each observation time, catalepsy scores were averaged for all the animals in a group to give the Mean Score of the group at that observation time. Further, the scores for each animal at all the observation times were added to give the total score for that animal. The mean of this last group of numbers was called the Mean Total Score of the group.
(§2) Catalepsy scores were analyzed by computer in accordance with the statistical procedures outlined by Winer, B. J.: Statistical principles in experimental design. McGraw-Hill, New York, pp. 10-428, 1971. Generally, for a given set of comparisons, observations were subjected to an appropriate analysis of variance followed by two-tailed Dunnett or Student's t-tests to detect differences between treatment groups.

The next data set relates to GR/NER chimeric receptor. Nature of the data set: Activation of GR/NER in CV1 cells (luciferase). The settings on record: for Fold of stimulation GR/NER, Control: without dopamine. The protocol:
The ligand dependent transcription assays were performed as described in Example 4, using CV1 cells in place of COS cells. The transfected CV1 cells were treated with dopamine, TOFA, or with a combination of TOFA and dopamine at the indicated concentrations and tested for luciferase activity.
CV1 cells were co-transfected with the MMTV-Luciferase reporter gene (pJA358) and the GR/NER chimeric receptor as described in Example 4. The cells were treated with increasing amount of the dopamine D1 receptor antagonist SCH 23390 with or without 50 μM […] dopamine.

For data set [5], the system named is Muscarinic receptor agonist (Pilocarpine) induced catalepsy. Nature of the data set: Pilocarpine induced catalepsy (Bar method). Format: in vivo, rat. Particulars: carrier pretreatment, 24 h later 16 mg/kg Pilocarpine. The protocol:
as §1, §2
Rats were pretreated with 0.4 mg/kg TOFA or with carrier (S.C.). Twenty-four hours later, the rats were challenged with 16 mg/kg Pilocarpine, an agonist of the muscarinic cholinergic receptor, and the duration of catalepsy was monitored as described in Example 10.

As for `C/C=C/C/C=C/CCC(=O)[C@H]1O[C@H]1C(N)=O` [Cerulenin, cerulenin, reference compound], in data set [1], the “Expression mediated by GR/PPAR” value was “did not stimulate transcription”. Besides, in data set [1] (0.1 μM, COS cells, Table 2, read-out: Fold of stimulation GR/PPAR), the fold induction at 0.1 µM amounted to 1.03 ± 0.12. For the same compound, in data set [1] (1.0 μM, COS cells, Table 2, read-out: Fold of stimulation GR/PPAR), the fold induction at 1 µM was found to be 1.13 ± 0.05. Also, the fold induction at 10 µM in data set [1] (10.0 μM, COS cells, Table 2, read-out: Fold of stimulation GR/PPAR) came out at 0.58 ± 0.11. The MCC in data set [2] is over 10 µM.

For `CN1CCc2cc(Cl)c(O)cc2C(c2ccccc2)C1` (single isomer, unassigned) [SCH-23390, 8-chloro-2,3,4,5-tetrahydro-3-methyl-5-phenyl-1H-3-benzazepin-7-ol hemimaleate], the “Radial-arm maze performance” value in data set [3] was “reversed the lesion-induced impaired performance”. In addition, the “Catalepsy Duration” value in data set [4] was determined as 3.1 ± 1.3 s. The “Effect on transcription mediated by GR/NER in CV1 cells” value in the data set with GR/NER chimeric receptor was “stimulated the transcription”. In the data set on GR/NER chimeric receptor (50 μM dopamine), the “Effect on inhibition of luciferase expression caused by dopamine” value is recorded as “can reverse the inhibition of luciferase expression”. For the same compound, the “Fold of stimulation GR/NER, Dopamine (50 μM)” value with GR/NER chimeric receptor (SCH-23390 0.1 μM with 50 μM dopamine) was determined as 0.59 ± 0.06 fold; with GR/NER chimeric receptor (SCH-23390 1.0 μM with 50 μM dopamine), 0.55 ± 0.09 fold; in the data set on GR/NER chimeric receptor (SCH-23390 10.0 μM with 50 μM dopamine), 0.83 ± 0.12 fold; in the data set on GR/NER chimeric receptor (SCH-23390 100 μM with 50 μM dopamine), 2.61 ± 0.86 fold. For the same compound, the “Fold of stimulation GR/NER, Control” value in the data set with GR/NER chimeric receptor (SCH-23390 0.1 μM) turned out to be 1.32 ± 0.15 fold; in the data set with GR/NER chimeric receptor (SCH-23390 1.0 μM) it was 1.22 ± 0.11 fold; with GR/NER chimeric receptor (SCH-23390 10.0 μM) it was 1.64 ± 0.38 fold; in the data set on GR/NER chimeric receptor (SCH-23390 100 μM) it was 2.38 ± 0.19 fold.

In the case of `CC[C@@H]1C(=O)OC[C@@H]1Cc1cncn1C` [Pilocarpine, pilocarpine, reference compound], the “Catalepsy Duration” value in data set [5] amounted to 27.3 ± 3.6 s.
